This assay deals with PBMCs infected with VSV-G pseudotyped HIV virus (VSV-G/pNLG1-P2A-ΔEnv). The assay can be described thus: cells. In kind it is cell-based. As to conditions: Homo sapiens, PBMC, read-out: TACK EC50.
Regarding `Nc1nccc(Cc2cc3c(cc2Cl)[C@@](C#CC2CC2)(C(F)(F)F)NC(=O)N3)n1` [Example 31, (S)-7-((2-aminopyrimidin-4-yl)methyl)-6-chloro-4-(cyclo-propylethynyl)-4-(trifluoro-methyl)-3,4-dihydroquinazo-lin-2(1H)-one], the EC50 was found to be 58.7 nM.

In the case of `Nc1ncc(F)c(Cc2cc3c(cc2Cl)[C@@](C#CC2CC2)(C(F)(F)F)NC(=O)N3)n1` [Example 32, (S)-7-((2-amino-5-fluoropyr-imidin-4-yl)methyl)-6-chloro-4-(cyclopropylethynyl)-4-(trifluoromethyl)-3,4-dihydro-quinazolin-2(1H)-one], the EC50 is 156 nM.

As to `Cc1cc2c(cc1Cc1ccnc(N)n1)NC(=O)N[C@]2(C#CC1CC1)C(F)(F)F` [Example 33, (S)-7-((2-aminopyrimidin-4-yl)methyl)-4-(cyclopropyl-ethynyl)-6-methyl-4-(trifluoro-methyl)-3,4-dihydroquinazo-lin-2(1H)-one], the EC50 came to 183 nM.

`Cc1cnc(N)nc1Cc1ccc2c(c1)NC(=O)N[C@]2(C#CC1CC1)C(F)(F)F` [Example 34, (S)-7-((2-amino-5-methylpyr-imidin-4-yl)methyl)-4-(cyclo-propylethynyl)-4-(trifluoro-methyl)-3,4-dihydroquinazo-lin-2(1H)-one]: the concentration for a half-maximal effect (EC50) was 155 nM.

In the case of `Nc1cccc(Cc2ccc3c(c2)NC(=O)N[C@]3(C#CC2CC2)C(F)(F)F)n1` [Example 35, (S)-7-((6-aminopyridin-2-yl)methyl)-4-(cyclopropylethynyl)-4-(trifluoromethyl)-3,4-dihydroquinazolin-2(1H)-one], the EC50 was 106 nM.

Consider `Nc1ccc(F)c(Cc2ccc3c(c2)NC(=O)N[C@]3(C#CC2CC2)C(F)(F)F)n1` [Example 36, (S)-7-((6-amino-3-fluoro-pyridin-2-yl)methyl)-4-(cyclopropylethynyl)-4-(trifluoromethyl)-3,4-dihydroquinazolin-2(1H)-one], for which the EC50 was determined as 155 nM.

For `Nc1cc(Cc2ccc3c(c2)NC(=O)N[C@]3(C#CC2CC2)C(F)(F)F)c(F)cn1` [Example 37, (S)-7-((2-amino-5-fluoro-pyridin-4-yl)methyl)-4-(cyclopropylethynyl)-4-(trifluoromethyl)-3,4-dihydroquinazolin-2(1H)-one], the EC50 turned out to be 168 nM.

Turning to `Nc1nccc(Cc2cc3c(cc2F)[C@@](C#CC2CC2)(C(F)(F)F)NC(=O)N3)n1` [Example 38, (S)-7-((2-aminopyrimidin-4-yl)methyl)-4-(cyclopropylethynyl)-6-fluoro-4-(trifluoromethyl)-3,4-dihydroquinazolin-2(1H)-one], the EC50 stood at 38.6 nM.

In the case of `CN1C(=O)Nc2cc(Cc3ccnc(N)n3)ccc2[C@@]1(C#CC1CC1)C(F)(F)F` [Example 39, (S)-7-((2-aminopyrimidin-4-yl)methyl)-4-(cyclopropylethynyl)-3-methyl-4-(trifluoromethyl)-3,4-dihydroquinazolin-2(1H)-one], the EC50 is 60.3 nM.

With `O=C1Nc2cc(Cc3ccc(CO)cn3)c(F)cc2[C@@](C#CC2CC2)(C(F)(F)F)N1` [Example 41, (S)-2-((4-(cyclopropylethynyl)-6-fluoro-2-oxo-4-(trifluoromethyl)-1,2,3,4-tetrahydroquinazolin-7-yl)methyl)-5-(hydroxymethyl)pyridin-1-ium 2,2,2-trifluoroacetate], the EC50 amounted to 90.7 nM.

On to `O=C1Nc2cc(Cc3ccc(OCCO)cn3)c(F)cc2[C@@](C#CC2CC2)(C(F)(F)F)N1` [Example 42, (S)-4-(cyclopropylethynyl)-6-fluoro-7-((5-(2-hydroxyethoxy)pyridin-2-yl)methyl)-4-(trifluoromethyl)-3,4-dihydroquinazolin-2(1H)-one], for which the EC50 came to 161 nM.

In the case of `N#Cc1cc(Cc2cc3c(cc2F)[C@@](C#CC2CC2)(C(F)(F)F)NC(=O)N3)[n+]([O-])cc1OCCO` [Example 43, (S)-4-cyano-2-((4-(cyclopropylethynyl)-6-fluoro-2-oxo-4-(trifluoromethyl)-1,2,3,4-tetrahydroquinazolin-7-yl)methyl)-5-(2-hydroxyethoxy)pyridine 1-oxide], the EC50 was 166 nM.

For the molecule `NS(=O)(=O)c1ccc(Cc2ccc3c(c2)NC(=S)N[C@]3(C#CC2CC2)C(F)(F)F)cc1` [Example 44, (S)-4-((4-(cyclopropylethynyl)-2-thioxo-4-(trifluoromethyl)-1,2,3,4-tetrahydroquinazolin-7-yl)methyl)benzenesulfonamide], the EC50 is 180 nM.

`Nc1nc(Cc2ccc3c(c2)NC(=O)N[C@]3(C#CC2CC2)C(F)(F)F)ccc1CO` [Example 45, (S)-7-((6-amino-5-(hydroxymethyl)pyridin-2-yl)methyl)-4-(cyclopropylethynyl)-4-(trifluoromethyl)-3,4-dihydroquinazolin-2(1H)-one]: the EC50 amounted to 53.2 nM.

Regarding `Nc1nc(Cc2cc3c(cc2F)[C@@](C#CC2CC2)(C(F)(F)F)NC(=O)N3)cnc1CO` [Example 46, (S)-7-((6-amino-5-(hydroxymethyl)pyrazin-2-yl)methyl)-4-(cyclopropylethynyl)-6-fluoro-4-(trifluoromethyl)-3,4-dihydroquinazolin-2(1H)-one], the EC50 was 108 nM.

Consider `CC(F)(F)[C@@]1(C#CC2CC2)NC(=O)Nc2cc(Cc3ccnc(N)n3)c(F)cc21` [Example 47, (S)-7-((2-aminopyrimidin-4-yl)methyl)-4-(cyclopropylethynyl)-4-(1,1-difluoroethyl)-6-fluoro-3,4-dihydroquinazolin-2(1H)-one], for which the EC50 amounted to 17.1 nM.

Take `Nc1nc(Cl)cc(Cc2ccc3c(c2)NC(=O)N[C@]3(C#CC2CC2)C(F)(F)F)n1` [Example 48, (S)-7-((2-amino-6-chloropyrimidin-4-yl)methyl)-4-(cyclopropylethynyl)-4-(trifluoromethyl)-3,4-dihydroquinazolin-2(1H)-one]: the EC50 was determined as 142 nM.

For the molecule `Nc1ncnc(Cc2ccc3c(c2)NC(=O)N[C@]3(C#CC2CC2)C(F)(F)F)n1` [Example 49, (S)-7-((4-amino-1,3,5-triazin-2-yl)methyl)-4-(cyclopropyl-ethynyl)-4-(trifluoromethyl)-3,4-dihydroquinazolin-2(1H)-one], the EC50 stood at 146 nM.

On to `N#Cc1c(Cc2ccc3c(c2)NC(=O)N[C@]3(C#CC2CC2)C(F)(F)F)ccnc1N` [Example 50, (S)-2-amino-4-((4-(cyclo-propylethynyl)-2-oxo-4-(trifluoromethyl)-1,2,3,4-tetrahydroquinazolin-7-yl)-methyl)nicotinonitrile], for which the EC50 amounted to 34.9 nM.

In the case of `O=C1Nc2cc(Cc3cnccn3)c(F)cc2[C@@](C#CC2CC2)(C(F)(F)F)N1` [Example 51, (S)-4-(cyclopropylethynyl)-6-fluoro-7-(pyrazin-2-ylmeth-yl)-4-(trifluoromethyl)-3,4-dihydroquinazolin-2(1H)-one], the EC50 worked out at 96.4 nM.

Regarding `N#Cc1c(Cc2cc3c(cc2F)[C@@](C#CC2CC2)(C(F)(F)F)NC(=O)N3)ccnc1N` [Example 52, (S)-2-amino-4-((4-(cyclo-propylethynyl)-6-fluoro-2-oxo-4-(trifluoromethyl)-1,2,3,4-tetrahydroquinazolin-7-yl)methyl)nicotinonitrile], the EC50 was 21.4 nM.

Take `O=C1Nc2cc(Cc3ccccn3)c(F)cc2[C@@](C#CC2CC2)(C(F)(F)F)N1` [Example 53, (S)-4-(cyclopropylethynyl)-6-fluoro-7-(pyridin-2-ylmeth-yl)-4-(trifluoromethyl)-3,4-dihydroquinazolin-2(1H)-one]: the EC50 amounted to 137 nM.

A word on the EC50: it is the concentration that produces a half-maximal response.
